Reference: patent publication US20260199500A1, “Camptothecin Derivative, Conjugate Thereof, Preparation Method Therefor and Medical Use Thereof” (priority 2023, published 2026)

Tests used:
[1] = Log D of small molecules (1-octanol / phosphate buffer pH 2.5 and pH 7.4, LC-MS/MS); assay type: physicochemical
Method: (1) Preparation of 100 mM phosphate buffer (PB) solution at pH 2.5 and pH 7.4 respectively: • a. Preparation of a solution of 100 mM H3PO4 in water: 14.7 M H3PO4 was diluted with water to a concentration of 100 mM H3PO4, and the pH was measured to be approximately 1.8. • b. Preparation of 100 mM NaH2PO4: 5.999 g of NaH2PO4 was dissolved in 500 mL of water and the pH was measured to be approximately 4.5. • c. Preparation of 100 mM Na2HPO4: 7.098 g of Na2HPO4 was dissolved in water to a volume of 500 mL and the pH was measured to be approximately 9.4. • d. Preparation of 100 mM PB (pH 2.5): 15 mL of 100 mM H3PO4 was added to a 50 mL tube, and then pH was adjusted to 2.5±0.05 with 100 mM NaH2PO4. • d. Preparation of 100 mM PB (pH 7.4): 15 mL of 100 mM Na2HPO4 was added to a 50 mL tube, and then pH was adjusted to 7.4±0.05 with 100 mM NaH2PO4.
(2) Saturation of PBs (pH 2.5 and pH 7.4) with 1-octanol: 10 mL of 1-octanol was added to 100 mL of 100 mM PBs (pH 2.5 and pH 7.4), and the mixture was shaken vigorously, and then allowed to stand overnight at room temperature for later use.
(3) Saturation of 1-octanol with PBs (pH 2.5 and pH 7.4): 10 mL of 100 mM PBs (pH 2.5 and pH 7.4) was added to 100 mL of 1-octanol, and the mixture was shaken vigorously, and then allowed to stand overnight at room temperature for later use.
2.1) 2 μL of 10 mM DMSO stock solution of the test compound were dispensed into test tubes, in duplicate.
2.2) 149 μL of PB saturated with 1-octanol (pH 2.5 and 7.4) were added to the tubes.
2.3) 149 μL of PB (pH 2.5 and 7.4) saturated with 1-octanol were added to the corresponding tubes.
2.4) Each tube was vigorously mixed for 2 minutes, then shaken at 800 rpm for 1 hour at room temperature.
2.5) The tubes were centrifuged at 4000 rpm for 5 minutes at room temperature.
2.6) Appropriate volumes of the buffer phase and 1-octanol phase samples were aliquoted.
2.7) These samples were diluted and analyzed using LC-MS/MS without running a calibration curve.
2.8) Data analysis: The log D value of each compound was calculated using the following formula: f

[2] = test system: MDA-MB-468 breast cancer cells; test: Inhibitory activity of compounds on MDA-MB-468 breast cancer cells (CellTiter-Glo); assay type: cell-based; conditions: for IC50 on 468 cells, ratio to DXD: IC50 of PY-X (DXD) set to 1, values are ratios of measured IC50 to DXD
Method: (§1) On the day of the experiment, the cells were digested with 0.25% trypsin (Gibco, 25200-072), filtered through a 40 μm sieve, diluted with the corresponding medium to a cell density of 1×10^4 cells/mL, and inoculated into a 96-well white cell culture plate (Beyotime, FCP968), with 100 μL of cells added per well. The culture plate was placed in a 37° C. incubator (Thermo 311) containing 5% C02 and incubated for 24 hours. On the second day, the samples to be tested were prepared as a stock solution at a final concentration of 1M in DMSO (Sigma, D1650), then diluted with the corresponding medium to a final concentration of 200 nM, and subjected to four-fold serial dilutions, resulting in a total of 9 concentrations. 100 μL of the diluted sample was added to each well of the 96-well plate. The plate was placed in a 37° C. incubator containing 5% CO2 and incubated for 144 hours. The cell culture plate was then removed, and 100 μL of the cell viability assay reagent (CellTiter-Glo® Luminescent Cell Viability Assay, Promega, G7571) was added to each well. The reaction was carried out in the dark at room temperature for 5 minutes. Luminescence values were read using a microplate reader (TECAN SPARK), and data were processed using Graphpad Prism 7 software.
(§2) PY—Y is referenced in the document (WO2022170971A1); and PY-A is referenced in the document (WO2021148501A1).

[3] = test system: N87 gastric cancer cells; test: Inhibitory activity of compounds on N87 gastric cancer cells (CellTiter-Glo, 144 h); assay type: cell-based; conditions: for IC50 on N87 cells, ratio to DXD: IC50 of PY-X (DXD) set to 1, values are ratios of measured IC50 to DXD, 144 h
Method: as §1, §2

[4] = test system: Colo-205 (Colon) cells; test: Inhibition of Colo-205 cells by compounds; assay type: cell-based; conditions: PY-X (DXD) set to 1
Method: as §1

[5] = test system: H82 (SCLC) cells; test: Inhibition of H82 cells by compounds; assay type: cell-based; conditions: PY-X (DXD) set to 1
Method: as §1

[6] = test system: HT-29 (Colon) cells; test: Inhibition of HT-29 cells by compounds; assay type: cell-based; conditions: PY-X (DXD) set to 1
Method: as §1

[7] = test system: A549 (NSCLC) cells; test: Inhibition of A549 cells by compounds; assay type: cell-based; conditions: PY-X (DXD) set to 1
Method: as §1

[8] = test system: SW1573 (NSCLC) cells; test: Inhibition of SW1573 cells by compounds; assay type: cell-based; conditions: PY-X (DXD) set to 1
Method: as §1

[9] = test system: H1437 (NSCLC) cells; test: Inhibition of H1437 cells by compounds; assay type: cell-based; conditions: PY-X (DXD) set to 1
Method: as §1

[10] = test system: SW1990 (Pancreatic) cells; test: Inhibition of SW1990 cells by compounds; assay type: cell-based; conditions: PY-X (DXD) set to 1
Method: as §1

[11] = test system: H1650 (NSCLC) cells; test: Inhibition of H1650 cells by compounds; assay type: cell-based; conditions: PY-X (DXD) set to 1
Method: as §1

[12] = test system: PANC-1 (Pancreatic) cells; test: Inhibition of PANC-1 cells by compounds; assay type: cell-based; conditions: PY-X (DXD) set to 1
Method: as §1

[13] = samples retested together, ratio of measured IC50 to DXD

Q: With `CC[C@@]1(O)C(=O)OCc2c1cc1n(c2=O)Cc2c-1nc1cc(F)c(C)c3c1c2[C@@H](NC(=O)OCCCO)CC3` [PY-4Car3C, 3-hydroxypropyl((1S,9S)-9-ethyl-5-fluoro-9-hydroxy-4-methyl-10,13-dioxo-2,3,9,10,13,15-hexahydro-1H,12H-benzo[d]pyrano[3′,4′:6,7]indolizino[1,2-b]quinolin-1-yl)carbamate] as the compound, how does the logD ([1]; pH 2.5) read?
A: 2.2

Q: What about the logD ([1]; pH 7.4) of the same compound?
A: 2.29

Q: And the “IC50 on 468 cells, ratio to DXD (retest)” value [2, 13]?
A: 0.5740

Q: And the “IC50 on N87 cells, ratio to DXD (retest)” value [3, 13]?
A: 0.3593

Q: What does the source list for `CC[C@@]1(O)C(=O)OCc2c1cc1n(c2=O)Cc2c-1nc1cc(F)c(OC)c3c1c2[C@@H](N)CC3` [PY-12A, (1S,9S)-1-amino-9-ethyl-5-fluoro-9-hydroxy-4-methoxy-1,2,3,9,12,15-hexahydro-10H,13H-benzo[de]pyrano[3′,4:6,7]indolizino[1,2-b]quinolin-10,13-dione]?
A: IC50 on 468 cells, ratio to DXD [2]: 3.3035; IC50 on N87 cells, ratio to DXD [3]: 1.6441

Q: What does the source list for `CC[C@@]1(O)C(=O)OCc2c1cc1n(c2=O)Cc2c-1nc1cc(Cl)c(CO)c3c1c2CCC3` [PY-37, (S)-5-chloro-9-ethyl-9-hydroxy-4-(hydroxymethyl)-1,2,3,9,12,15-hexahydro-10 h,13 h-benzo[de]pyrano[3′,4′:6,7]indolizino[1,2-b]quinolin-10,13-dione]?
A: IC50 in Colo-205 cells, ratio to DXD [4]: 0.6449; IC50 in H82 cells, ratio to DXD [5]: 1.1563; IC50 in HT-29 cells, ratio to DXD [6]: 0.4700; IC50 in A549 cells, ratio to DXD [7]: 0.4179; IC50 in SW1573 cells, ratio to DXD [8]: 0.6712; IC50 in H1437 cells, ratio to DXD [9]: 0.9440; IC50 in SW1990 cells, ratio to DXD [10]: 0.7777; IC50 in H1650 cells, ratio to DXD [11]: 0.7310; IC50 in PANC-1 cells, ratio to DXD [12]: 0.3514

Q: For `CC[C@@]1(O)C(=O)OCc2c1cc1n(c2=O)Cc2c-1nc1cc(F)c(CCCCN)c3c1c2CCC3` [PY-24], which “IC50 on 468 cells, ratio to DXD” value [2] is on record?
A: 2.2057

Q: And the “IC50 on N87 cells, ratio to DXD” value [3]?
A: 1.5288

Q: Which results are given for `CC[C@@]1(O)C(=O)OCc2c1cc1n(c2=O)Cc2c-1nc1cc(F)c(OC)c3c1c2[C@H](N)CC3` [PY-12B, (1R,9S)-1-amino-9-ethyl-5-fluoro-9-hydroxy-4-methoxy-1,2,3,9,12,15-hexahydro-10H,13H-benzo[de]pyrano[3′,4:6,7]indolizino[1,2-b]quinolin-10,13-dione]?
A: IC50 on 468 cells, ratio to DXD [2]: 8.4257; IC50 on N87 cells, ratio to DXD [3]: 5.3044

Q: What does the source list for `CC[C@@]1(O)C(=O)OCc2c1cc1n(c2=O)Cc2c-1nc1cc(F)c(C)c3c1c2[C@@H](CC(=O)NCCO)CC3` [PY-25B, 2-((1R,9S)-9-9-ethyl-5-fluoro-9-hydroxy-4-methyl-10,13-dioxo-2,3,9,10,13,15-hexahydro-1H,12H-benzo[de]pyrano[3′,4′:6,7]indolizino[1,2-b]quinolin-1-yl)-N-(2-hydroxyethyl)acetamide]?
A: IC50 on 468 cells, ratio to DXD [2]: 1.3101; IC50 on N87 cells, ratio to DXD [3]: 2.9428

Q: With “(S)-9-ethyl-5-fluoro-9-hydroxy-1,2,3,9,12,15-hexahydro-10H,13H-benzo[de]pyrano[3′,4′: 6,7]indolizino[1,2-b]quinolin-10,13-dione [PY-10B]” as the compound, how does the “IC50 on 468 cells, ratio to DXD” value [2] read?
A: 0.4362

Q: What about the “IC50 on N87 cells, ratio to DXD” value [3] of the same compound?
A: 0.1623
